Test results: US8513423B2 (Janssen Pharmaceutica, NV, priority 2010, dated 2013)
Changes are numbered by the printed parent chain. Read-outs that look alike come from different tables or passages of the source.

How the values were obtained:
[1] = biological target: T1, purified mutant MGL (mut-MGLL 11-313 L179S L186S) (Homo sapiens, UniProt Q99685, L169S/L176S); assay: MGL enzyme activity assay (4MU-B cleavage), mutant MGL; type: biochemical; conditions: 10 μM 4MU-B, 5 nM enzyme, 37° C., read-out: MGL mutant inh IC50
T1 construct: purified mutant MGL (mut-MGLL 11-313 L179S L186S)
T1 sequence (Q99685 1-303 L169S/L176S): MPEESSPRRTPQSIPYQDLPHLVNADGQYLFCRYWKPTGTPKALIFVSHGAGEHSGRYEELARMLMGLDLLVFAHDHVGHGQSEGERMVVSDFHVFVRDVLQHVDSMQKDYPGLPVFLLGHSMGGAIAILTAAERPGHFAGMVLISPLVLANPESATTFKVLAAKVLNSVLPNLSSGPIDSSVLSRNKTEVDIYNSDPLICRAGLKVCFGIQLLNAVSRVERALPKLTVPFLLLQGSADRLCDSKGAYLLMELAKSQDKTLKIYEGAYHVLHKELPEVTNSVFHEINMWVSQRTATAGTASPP
Method: All rate-based assays were performed in black 384-well polypropylene PCR microplates (Abgene) in a total volume of 30 μL. Substrate 4-methylumbelliferyl butyrate (4MU-B; Sigma) and either purified mutant MGL (mut-MGLL 11-313 L179S L186S) or purified wild type MGL (wt-MGLL 6H-11-313) were diluted separately into 20 mM PIPES buffer (pH=7.0), containing 150 mM NaCl and 0.001% Tween 20. Compounds of Formula (I) were pre-dispensed (50 nL) into the assay plate using a Cartesian Hummingbird prior to adding 4MU-B (25 μL of 1.2× solution to a final concentration of 10 μM) followed by enzyme (5 μL of a 6× solution to a final concentration of 5 nM) to initiate the reaction. Final compound concentrations ranged from 17 to 0.0003 μM. The fluorescence change due to 4MU-B cleavage was monitored with excitation and emission wavelengths of 335 and 440 nm, respectively, and a bandwidth of 10 nm (Safire^2, Tecan) at 37° C. for 5 min.
The IC50 values for compounds of Formula (I) were determined using Excel from a fit of the equation to the concentration-response plot of the fractional activity as a function of inhibitor concentration.

[2] = biological target: T2, purified wild type MGL (wt-MGLL 6H-11-313) (Homo sapiens, UniProt Q99685); assay: MGL enzyme activity assay (4MU-B cleavage), wild type MGL; type: biochemical; conditions: 10 μM 4MU-B, 5 nM enzyme, 37° C., read-out: MGL wild type inh IC50
T2 construct: purified wild type MGL (wt-MGLL 6H-11-313)
T2 sequence (Q99685 1-303): T1 sequence (Q99685 1-303 L169S/L176S) with S169L, S176L
Method in brief: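 Enzyme (5 nM final) cleaved 4MU-B (10 μM final) in 20 mM PIPES pH 7.0 with 150 mM NaCl and 0.001% Tween 20. Compounds were tested at 17 to 0.0003 μM final. Fluorescence (ex 335/em 440 nm) was monitored at 37° C for 5 min, and IC50 was fitted from fractional activity versus inhibitor concentration.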

[3] = biological target: T3, MGL (Rattus norvegicus, UniProt Q8R431); assay: 2-AG accumulation assay in rat brain homogenate; type: biochemical; conditions: compound @1 μM, read-out: Rat Brain 2AG % VehCntrl (%) @1 μM
T3 construct: one g rat brain was homogenized; from tissue; host or cells: rat brain homogenate
T3 sequence (Q8R431 1-303): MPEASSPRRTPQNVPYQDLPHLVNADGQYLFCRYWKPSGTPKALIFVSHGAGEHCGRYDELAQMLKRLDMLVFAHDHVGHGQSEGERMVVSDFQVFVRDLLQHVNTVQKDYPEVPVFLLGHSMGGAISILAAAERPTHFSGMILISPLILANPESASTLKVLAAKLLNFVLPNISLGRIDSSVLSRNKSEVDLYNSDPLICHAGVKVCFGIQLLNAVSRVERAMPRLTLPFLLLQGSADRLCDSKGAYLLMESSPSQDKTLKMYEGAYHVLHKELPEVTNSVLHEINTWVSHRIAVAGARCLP
Method in brief: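 Inhibition of rat MGL was assessed by measuring 2-AG build-up in brain homogenate. After a 15-min preincubation at 37° C., 10 mM CaCl2 was added and the 5 mL reaction ran 15 min more at 37° C. It was quenched with 6 mL 2:1 chloroform/methanol, extracted 2-AG was measured by HPLC/MS, and accumulation with compound was expressed as a percentage of vehicle.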

[4] = biological target: T4, mutant MGL (Homo sapiens, UniProt Q99685, L169S/L176S); assay: MGL ThermoFluor assay - mutant; type: binding
T4 construct: purified mutant MGL (mut-MGLL 11-313 L179S L186S)
T4 sequence (Q99685 1-303 L169S/L176S): T1 sequence (Q99685 1-303 L169S/L176S)
Method in brief: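 Thermal shift binding with 0.07 mg/ml L169S/L176S MGL, 100 μM 1,8-ANS, 200 mM NaCl, 0.001% Tween-20, 50 mM PIPES pH 7.0. Heated 40–90 °C at 1 °C/min, fluorescence (em 500 nm) tracked to give Tm; Kd fitted from 11-point concentration–Tm response, qKd when stocks quantified by qNMR.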

[5] = 0.07 mg/ml mutant MGL, pH=7.0, read-out: MGL mutant ThermoFluor Kd
[6] = compound concentration measured by qNMR, read-out: MGL mutant ThermoFluor qKd (using qNMR conc.)

| Structure (SMILES) | IC50 [1] | IC50 [2] | 2-AG accumulation, percent of vehicle control at 1 µM [3] | Kd [4, 5] | Kd [4, 6] |
| --- | --- | --- | --- | --- | --- |
| O=C(c1ccc(-c2ccccc2)cc1)N1CC(C2CCN(C(=O)c3nccs3)CC2)C1 [Cpd 2, 4-[1-(Biphenyl-4-ylcarbonyl)azetidin-3-yl]-1-(1,3-thiazol-2-ylcarbonyl)piperidine] | < 5 nM | < 5 nM | 329% | 8.9 nM | – |
| O=C(c1ccc(-c2ccccc2)cc1)N1CC(C2CCN(C(=O)c3cscn3)CC2)C1 [Cpd 1, 4-[1-(Biphenyl-4-ylcarbonyl)azetidin-3-yl]-1-(1,3-thiazol-4-ylcarbonyl)piperidine] | 79 nM | 258 nM | 109% | 100 nM | – |
| O=C(c1cscn1)N1CC(C2CCN(C(=O)c3sc4cc(C(F)(F)F)ccc4c3Cl)CC2)C1 [Cpd 70, 1-{[3-Chloro-6-(trifluoromethyl)-1-benzothiophen-2-yl]carbonyl}-4-[1-(1,3-thiazol-4-ylcarbonyl)azetidin-3-yl]piperidine] | – | 8 nM | 561% | – | 0.6 nM |
| O=C(c1nccs1)N1CC(C2CCN(C(=O)c3sc4cc(C(F)(F)F)ccc4c3Cl)CC2)C1 [Cpd 69, 1-{[3-Chloro-6-(trifluoromethyl)-1-benzothiophen-2-yl]carbonyl}-4-[1-(1,3-thiazol-2-ylcarbonyl)azetidin-3-yl]piperidine] | – | < 5 nM | 539% | – | 1.2 nM |
| Cc1c(C(=O)N2CC(C3CCN(C(=O)c4cscn4)CC3)C2)sc2cc(C(F)(F)F)ccc12 [Cpd 14, 4-(1-{[3-Methyl-6-(trifluoromethyl)-1-benzothiophen-2-yl]carbonyl}azetidin-3-yl)-1-(1,3-thiazol-4-ylcarbonyl)piperidine] | – | 5 nM | 231% | 5 nM | – |
| O=C(c1nccs1)N1CCC(C2CN(C(=O)c3ccc(-c4ccccc4)cc3F)C2)CC1 [Cpd 15, 4-{1-[(3-Fluorobiphenyl-4-yl)carbonyl]azetidin-3-yl}-1-(1,3-thiazol-2-ylcarbonyl)piperidine] | – | 7 nM | 281% | 9 nM | – |
